For one data set, the system named is HIV-IIIb. The experiment in a line: Test A: Antiviral assay in MT4 cells. Type of data set: cell-based, HIV-1. The conditions noted are these: Human immunodeficiency virus 1, IIIB, MT4, 120 h, read-out: % inhibition at 2 μM, percent inhibition of virus-induced cell killing, from dose response curve at 2 uM drug; MT-4 cells infected with HIV-IIIb, 5 days, CellTiter-Glo. Background: ATP-based viability assays read luminescence as a measure of living cells.

The nature of the next data set: in vitro. The conditions noted are these: human, uninfected MT-4 cells, CC50 (nM), same protocol as Test A, CellTiter-Glo. The gist of the method: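 Cytoprotection read-out: CellTiter-Glo chemiluminescence after 5 days at 37 °C of HIV-IIIb-infected MT-4 cells (m.o.i. 0.003) with compound in 10-point 3-fold dilutions, quadruplicate, 10% FBS. Cytotoxicity (CC50) measured identically without virus.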

Usually inhibition stands for the change of the read-out against control, counted positive when it falls. One may read the CC50 as the concentration giving 50% cytotoxicity. Lower therefore signals harm at low concentration.

As for `Cc1ccc2c(ccn2CC(=O)N[C@@H](Cc2cc(F)cc(F)c2)c2ncccc2-c2ccc(F)c(C(N)=O)c2)c1` [Example 547, (S)-5-(2-(2-(3,5-difluorophenyl)-1-(2-(5-methyl-1H-indol-1-yl)acetamido)ethyl)pyridin-3-yl)-2-fluorobenzamide], the inhibition at 2 µM in the data set on HIV-IIIb is 45%. In the data set “in vitro”, this compound returned a CC50 at 5 days of 13300 nM.
As for `NC(=O)c1cc(-c2cccnc2C(Cc2cc(F)cc(F)c2)NC(=O)Cn2nc(C(F)F)c3c2C(F)(F)CCC3F)ccc1F` (stereo not shown) [Example 390, 5-(2-(1-(2-(3-(difluoromethyl)-4,7,7-trifluoro-4,5,6,7-tetrahydro-1H-indazol-1-yl)acetamido)-2-(3,5-difluorophenyl)ethyl)pyridin-3-yl)-2-fluorobenzamide], in the data set with HIV-IIIb, the inhibition at 2 µM was found to be 99%. In the data set “in vitro”, this compound yielded a CC50 at 5 days of 21600 nM.
For `NC(=O)c1cc(-c2cccnc2[C@H](Cc2cc(F)cc(F)c2)NC(=O)Cn2nc(C(F)(F)F)c3c2CC(F)(F)C3)ccc1F` [Example 239, (S)-5-(2-(1-(2-(5,5-difluoro-3-(trifluoromethyl)-5,6-dihydrocyclopenta[c]pyrazol-1(4H)-yl)acetamido)-2-(3,5-difluorophenyl)ethyl)pyridin-3-yl)-2-fluorobenzamide] the same measures were 18% and 19400 nM.
Consider `NC(=O)c1cc(-c2cccnc2[C@H](Cc2cc(F)cc(F)c2)NC(=O)Cn2nc(C(F)F)c3c2CC(F)(F)C3)ccc1F` [Example 241D, (S)-5-(2-(1-(2-(3-(difluoromethyl)-5,5-difluoro-5,6-dihydrocyclopenta[c]pyrazol-1(4H)-yl)acetamido)-2-(3,5-difluorophenyl)ethyl)pyridin-3-yl)-2-fluorobenzamide], for which, in the data set with HIV-IIIb, the inhibition at 2 µM was found to be 78%. Besides, the midpoint of cytotoxicity in the data set “in vitro”, the CC50 at 5 days, lay at 25400 nM.
On to `O=C(Cc1c[nH]c2ccc(F)cc12)N[C@H](Cc1cc(F)cc(F)c1)c1ncncc1-c1ccc(Cl)cc1` [Example 293, (R)—N-(1-(5-(4-chlorophenyl)pyrimidin-4-yl)-2-(3,5-difluorophenyl)ethyl)-2-(5-fluoro-1H-indol-3-yl)acetamide], for which the inhibition at 2 µM with HIV-IIIb was found to be 44%. The compound also yielded a CC50 at 5 days in the data set “in vitro” of 11200 nM.
The corresponding values for `NC(=O)c1cccc(-c2cccnc2[C@H](Cc2cc(F)cc(F)c2)NC(=O)Cc2c[nH]c3cc(F)ccc23)c1` [Example 86, (S)-3-(2-(2-(3,5-difluorophenyl)-1-(2-(6-fluoro-1H-indol-3-yl)acetamido)ethyl)pyridin-3-yl)benzamide] are 97% and 21400 nM.
For `NC(=O)c1cc(-c2cccnc2[C@H](Cc2cc(F)cc(F)c2)NC(=O)Cn2cc(C=O)c(C(F)(F)F)n2)ccc1F` [Example 296, (S)-5-(2-(2-(3,5-difluorophenyl)-1-(2-(4-formyl-3-(trifluoromethyl)-1H-pyrazol-1-yl)acetamido)ethyl)pyridin-3-yl)-2-fluorobenzamide] the same measures were 96% and 10800 nM.
Consider `COc1cccc(CC(=O)N[C@@H](Cc2cc(F)cc(F)c2)c2ncccc2-c2cccc(C(N)=O)c2)c1` [Example 601, (S)-3-(2-(2-(3,5-difluorophenyl)-1-(2-(3-methoxyphenyl)acetamido)ethyl)pyridin-3-yl)benzamide], for which the inhibition at 2 µM in the data set on HIV-IIIb worked out at 22%. Also, the CC50 at 5 days in “in vitro” came to 41900 nM.
In the case of `O=C(Cc1c[nH]c2ccc(F)cc12)N[C@@H](Cc1cc(F)cc(F)c1)c1ncccc1-c1ccsc1` [Example 72, (S)—N-(2-(3,5-difluorophenyl)-1-(3-(thiophen-3-yl)pyridin-2-yl)ethyl)-2-(5-fluoro-1H-indol-3-yl)acetamide], in the data set with HIV-IIIb, the inhibition at 2 µM stood at 56%. In addition, in the data set “in vitro”, the midpoint of cytotoxicity, the CC50 at 5 days, lay at 16200 nM.
With `Cc1[nH]c2ccccc2c1CC(=O)N[C@@H](Cc1cc(F)cc(F)c1)c1ncccc1-c1cccc(C(N)=O)c1` [Example 497, (S)-3-(2-(2-(3,5-difluorophenyl)-1-(2-(2-methyl-1H-indol-3-yl)acetamido)ethyl)pyridin-3-yl)benzamide], the inhibition at 2 µM in the data set with HIV-IIIb stood at 67%. The same compound returned a CC50 at 5 days in “in vitro” of 27100 nM.
On to `NC(=O)c1cc(-c2cccnc2[C@H](Cc2cc(F)cc(F)c2)NC(=O)Cn2nc(C(F)(F)F)cc2C2CC2)ccc1F` [Example 138, (S)-5-(2-(1-(2-(5-cyclopropyl-3-(trifluoromethyl)-1H-pyrazol-1-yl)acetamido)-2-(3,5-difluorophenyl)ethyl)pyridin-3-yl)-2-fluorobenzamide], for which the inhibition at 2 µM in the data set with HIV-IIIb is 30%. Also, in the data set “in vitro”, the CC50 at 5 days is 24500 nM.
Take `O=C(Cc1c[nH]c2ccc(F)cc12)N[C@@H](Cc1cc(F)cc(F)c1)c1ncccc1-c1ccc(S(=O)(=O)N2CCOCC2)cc1` [Example 82, (S)—N-(2-(3,5-difluorophenyl)-1-(3-(4-(morpholinosulfonyl)phenyl)pyridin-2-yl)ethyl)-2-(5-fluoro-1H-indol-3-yl)acetamide]: the inhibition at 2 µM in the data set on HIV-IIIb came out at 114%. Also, the CC50 at 5 days in “in vitro” came to 19300 nM.
For `COc1ccc(-c2cccnc2[C@H](Cc2ccccc2)NC(=O)Cc2c[nH]c3ccc(O)cc23)cc1` [Example 20, (S)-2-(5-hydroxy-1H-indol-3-yl)-N-(1-(3-(4-methoxyphenyl)pyridin-2-yl)-2-phenylethyl)acetamide] the same measures were 84% and 48300 nM.
On to `Cc1nnc(-c2cccc(-c3cccnc3[C@H](Cc3cc(F)cc(F)c3)NC(=O)Cc3c[nH]c4ccc(F)cc34)c2)o1` [Example 99, (S)—N-(2-(3,5-difluorophenyl)-1-(3-(3-(5-methyl-1,3,4-oxadiazol-2-yl)phenyl)pyridin-2-yl)ethyl)-2-(5-fluoro-1H-indol-3-yl)acetamide], for which the inhibition at 2 µM in the data set on HIV-IIIb was 0%. In the data set “in vitro”, the CC50 at 5 days was above 53200 nM.
On to `NC(=O)c1cc(-c2cccnc2[C@H](Cc2cc(F)cc(F)c2)NC(=O)Cn2nc(-n3cccn3)ccc2=O)ccc1F` [Example 147, (S)-5-(2-(2-(3,5-difluorophenyl)-1-(2-(6-oxo-3-(1H-pyrazol-1-yl)pyridazin-1(6H)-yl)acetamido)ethyl)pyridin-3-yl)-2-fluorobenzamide], for which, in the data set on HIV-IIIb, the inhibition at 2 µM stood at 10%. The compound further registered a CC50 at 5 days in “in vitro” above 53200 nM.
With `COc1ccc2cc(-c3cccnc3[C@H](Cc3cc(F)cc(F)c3)NC(=O)Cc3c[nH]c4ccc(F)cc34)ccc2c1` [Example 435, (S)—N-(2-(3,5-difluorophenyl)-1-(3-(6-methoxynaphthalen-2-yl)pyridin-2-yl)ethyl)-2-(5-fluoro-1H-indol-3-yl)acetamide], in the data set on HIV-IIIb, the inhibition at 2 µM was found to be 7%. In the data set “in vitro”, this compound gave a CC50 at 5 days of 13900 nM.
Take `NC(=O)c1cc(-c2cccnc2[C@H](Cc2cc(F)cc(F)c2)NC(=O)[C@@H]2C[C@@H](O)CN2)ccc1F` [Example 178, (2S,4R)—N—((S)-1-(3-(3-carbamoyl-4-fluorophenyl)pyridin-2-yl)-2-(3,5-difluorophenyl)ethyl)-4-hydroxypyrrolidine-2-carboxamide]: the inhibition at 2 µM with HIV-IIIb stood at 0%. Also, the CC50 at 5 days in the data set “in vitro” was above 53000 nM.
Regarding `NC(=O)c1cc(-c2cccnc2[C@H](Cc2cc(F)cc(F)c2)NC(=O)Cn2nc(C=O)c3c2C2CCC3C2)ccc1F` (stereo partly drawn) [Example 403, (S)-5-(2-(2-(3,5-difluorophenyl)-1-(2-(4,5,6,7-tetrahydro-3-formyl-4,7-(methano)indazol-1-yl)acetamido)ethyl)pyridin-3-yl)-2-fluorobenzamide], the inhibition at 2 µM in the data set with HIV-IIIb is 112%. Besides, the CC50 at 5 days in the data set “in vitro” is 10500 nM.
For `CC(C)Cc1cc(C(F)(F)F)nn1CC(=O)N[C@@H](Cc1cc(F)cc(F)c1)c1ncccc1-c1ccc(F)c(C(N)=O)c1` [Example 207C, (S)-5-(2-(2-(3,5-difluorophenyl)-1-(2-(5-isobutyl-3-(trifluoromethyl)-1H-pyrazol-1-yl)acetamido)ethyl)pyridin-3-yl)-2-fluorobenzamide] the same measures were 16% and 13200 nM.
As for `O=C(Cc1c[nH]c2ccc(F)cc12)N[C@@H](Cc1cc(F)cc(F)c1)c1ncccc1-c1ccc(N2CCCC2)nc1` [Example 101, (S)—N-(2-(3,5-difluorophenyl)-1-(6′-(pyrrolidin-1-yl)-3,3′-bipyridin-2-yl)ethyl)-2-(5-fluoro-1H-indol-3-yl)acetamide], in the data set with HIV-IIIb, the inhibition at 2 µM was 29%. In addition, it took 12600 nM to reach half-maximal cytotoxicity in “in vitro” (CC50 at 5 days).
For `NC(=O)c1cc(-c2cccnc2[C@H](Cc2cc(F)cc(F)c2)NC(=O)Cn2nc(C(F)(F)F)c3c2CCC3O)ccc1F` (stereo partly drawn) [Example 525, 5-(2-((1S)-2-(3,5-difluorophenyl)-1-(2-(4-hydroxy-3-(trifluoromethyl)-5,6-dihydrocyclopenta[c]pyrazol-1(4H)-yl)acetamido)ethyl)pyridin-3-yl)-2-fluorobenzamide] the same measures were 83% and above 53200 nM.
For `O=C(Cn1nc(C(F)F)c2c1C(F)(F)CCC2(F)F)N[C@@H](Cc1cc(F)cc(F)c1)c1ncccc1-c1ccc2ccc(=O)[nH]c2c1` [Example 490D, (S)-2-(3-(difluoromethyl)-4,4,7,7-tetrafluoro-4,5,6,7-tetrahydro-1H-indazol-1-yl)-N-(2-(3,5-difluorophenyl)-1-(3-(2-oxo-1,2-dihydroquinolin-7-yl)pyridin-2-yl)ethyl)acetamide] the same measures were 87% and 38000 nM.
The corresponding values for `NC(=O)c1cc(-c2cccnc2[C@H](Cc2cc(F)cc(F)c2)NC(=O)C2(c3ccccc3)CC2)ccc1F` [Example 477, (S)-5-(2-(2-(3,5-difluorophenyl)-1-(1-phenylcyclopropanecarboxamido)ethyl)pyridin-3-yl)-2-fluorobenzamide] are 0% and 21400 nM.
